Six compounds from ChEMBL document CHEMBL3739348, “Novel pyrrole derivatives as selective CHK1 inhibitors: design, regioselective synthesis and molecular modeling” (Medchemcomm, 2015) can be followed below.

Assay [1] deals with Protein kinase C (PKC) (Homo sapiens) (UniProt O94806+P41743+P17252+P05129+Q05655+P05771+Q05513+Q02156+P24723+Q15139+Q04759). In words: Inhibition of PKC (unknown origin) at 30 uM by microfluidic assay relative to control.
In assay [2] the target is T1, Serine/threonine-protein kinase Chk1 (Homo sapiens) (UniProt O14757).
T1 sequence (whole entry): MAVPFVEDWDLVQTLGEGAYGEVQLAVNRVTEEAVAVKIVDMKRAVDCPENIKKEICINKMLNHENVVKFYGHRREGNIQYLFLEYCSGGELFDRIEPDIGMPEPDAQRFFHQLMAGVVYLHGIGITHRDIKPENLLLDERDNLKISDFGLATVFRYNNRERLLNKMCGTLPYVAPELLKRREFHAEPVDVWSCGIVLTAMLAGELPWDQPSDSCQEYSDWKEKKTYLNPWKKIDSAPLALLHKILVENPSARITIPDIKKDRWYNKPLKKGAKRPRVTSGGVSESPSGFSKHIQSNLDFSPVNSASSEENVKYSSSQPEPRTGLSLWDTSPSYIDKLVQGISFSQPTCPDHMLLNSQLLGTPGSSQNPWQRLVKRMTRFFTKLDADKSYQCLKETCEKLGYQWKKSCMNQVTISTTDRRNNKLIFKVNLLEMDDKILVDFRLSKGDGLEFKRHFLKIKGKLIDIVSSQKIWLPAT
In words: Inhibition of CHK1 (unknown origin) at 30 uM by microfluidic assay relative to control.

Assay [3] has as its target Mitogen-activated protein kinase 3 (Homo sapiens) (UniProt P27361). In words: Inhibition of Erk1 (unknown origin) at 30 uM by microfluidic assay relative to control.
Assay [4] concerns the target Mitogen-activated protein kinase 1 (Homo sapiens) (UniProt P28482). In words: Inhibition of Erk2 (unknown origin) at 30 uM by microfluidic assay relative to control.
Assay [5] addresses Glycogen synthase kinase-3 (Homo sapiens) (UniProt P49840+P49841). In words: Inhibition of GSK3 (unknown origin) at 30 uM by microfluidic assay relative to control. The class given is protein assay.
Assay [6] concerns the target Mitogen-activated protein kinase 14 (Homo sapiens) (UniProt Q16539). In words: Inhibition of p38a (unknown origin) at 30 uM by microfluidic assay relative to control.
The target in assay [7] is Tyrosine-protein kinase ABL1 (Homo sapiens) (UniProt P00519). In words: Inhibition of ABL (unknown origin) at 30 uM by microfluidic assay relative to control.
Assay [8] deals with Tyrosine-protein kinase Fyn (Homo sapiens) (UniProt P06241). In words: Inhibition of FYN (unknown origin) at 30 uM by microfluidic assay relative to control.
Assay [9] has as its target Insulin receptor (Homo sapiens) (UniProt P06213). In words: Inhibition of InsR (unknown origin) at 30 uM by microfluidic assay relative to control.
In assay [10] the target is Tyrosine-protein kinase Lyn (Homo sapiens) (UniProt P07948). In words: Inhibition of LYN (unknown origin) at 30 uM by microfluidic assay relative to control.
Chain of Tyrosine-protein kinase Lyn (Homo sapiens) (P07948 2-512 limits assumed): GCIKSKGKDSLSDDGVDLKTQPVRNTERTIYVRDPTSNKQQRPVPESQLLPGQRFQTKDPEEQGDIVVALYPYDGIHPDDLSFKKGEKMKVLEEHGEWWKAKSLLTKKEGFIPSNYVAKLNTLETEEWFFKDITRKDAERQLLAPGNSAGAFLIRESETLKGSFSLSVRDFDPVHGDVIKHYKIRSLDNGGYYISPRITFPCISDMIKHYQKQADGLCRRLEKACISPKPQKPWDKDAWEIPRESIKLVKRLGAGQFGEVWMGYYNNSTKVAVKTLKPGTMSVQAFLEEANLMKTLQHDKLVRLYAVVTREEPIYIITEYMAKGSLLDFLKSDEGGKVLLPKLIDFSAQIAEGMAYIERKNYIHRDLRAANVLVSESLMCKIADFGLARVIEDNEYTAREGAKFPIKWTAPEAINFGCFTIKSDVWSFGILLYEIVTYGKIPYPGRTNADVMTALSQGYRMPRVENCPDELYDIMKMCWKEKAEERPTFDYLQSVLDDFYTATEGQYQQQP
Assay [11] addresses Tyrosine-protein kinase Lck (Homo sapiens) (UniProt P06239). In words: Inhibition of LCK (unknown origin) at 30 uM by microfluidic assay relative to control.
The target of assay [12] is Hepatocyte growth factor receptor (Homo sapiens) (UniProt P08581). In words: Inhibition of MET (unknown origin) at 30 uM by microfluidic assay relative to control.
The target in assay [13] is Proto-oncogene tyrosine-protein kinase Src (Homo sapiens) (UniProt P12931). In words: Inhibition of SRC (unknown origin) at 30 uM by microfluidic assay relative to control.
Assay [14] addresses Epidermal growth factor receptor (Homo sapiens, UniProt P00533). In words: Inhibition of EGFR (unknown origin) by microfluidic assay relative to control.
The target in assay [15] is T2, Serine/threonine-protein kinase Chk1 (Homo sapiens, UniProt O14757).
T2 sequence (O14757 whole entry): T1 sequence (whole entry)
In words: Inhibition of CHK1 (unknown origin) by microfluidic assay relative to control.

Chain of Glycogen synthase kinase-3 (Homo sapiens) (P49840 whole entry, looked up): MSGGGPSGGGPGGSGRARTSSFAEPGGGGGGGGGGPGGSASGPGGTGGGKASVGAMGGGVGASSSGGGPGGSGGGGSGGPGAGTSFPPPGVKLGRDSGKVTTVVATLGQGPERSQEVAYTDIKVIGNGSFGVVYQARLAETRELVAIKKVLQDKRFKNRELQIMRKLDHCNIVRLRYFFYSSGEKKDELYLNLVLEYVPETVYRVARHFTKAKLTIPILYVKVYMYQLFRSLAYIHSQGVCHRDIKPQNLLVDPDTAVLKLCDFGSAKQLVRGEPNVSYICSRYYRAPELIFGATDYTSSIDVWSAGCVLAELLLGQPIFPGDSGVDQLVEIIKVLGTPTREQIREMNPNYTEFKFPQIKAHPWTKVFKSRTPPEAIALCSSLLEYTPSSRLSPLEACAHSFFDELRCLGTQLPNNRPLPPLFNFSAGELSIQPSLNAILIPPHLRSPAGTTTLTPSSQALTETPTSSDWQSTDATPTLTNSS
Chain of Glycogen synthase kinase-3 (Homo sapiens) (P49841 whole entry, looked up): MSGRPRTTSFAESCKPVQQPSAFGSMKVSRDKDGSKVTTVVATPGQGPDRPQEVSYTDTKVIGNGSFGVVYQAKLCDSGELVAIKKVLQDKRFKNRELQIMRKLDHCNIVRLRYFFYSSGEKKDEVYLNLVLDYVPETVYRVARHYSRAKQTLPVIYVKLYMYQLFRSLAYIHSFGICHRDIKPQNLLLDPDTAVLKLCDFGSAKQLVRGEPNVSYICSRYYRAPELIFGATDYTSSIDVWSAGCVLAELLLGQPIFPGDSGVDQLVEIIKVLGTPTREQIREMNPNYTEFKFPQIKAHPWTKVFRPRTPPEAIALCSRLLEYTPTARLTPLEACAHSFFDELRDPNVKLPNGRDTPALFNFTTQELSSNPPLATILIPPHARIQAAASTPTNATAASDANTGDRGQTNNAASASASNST
Chain of Mitogen-activated protein kinase 1 (Homo sapiens) (P28482 whole entry): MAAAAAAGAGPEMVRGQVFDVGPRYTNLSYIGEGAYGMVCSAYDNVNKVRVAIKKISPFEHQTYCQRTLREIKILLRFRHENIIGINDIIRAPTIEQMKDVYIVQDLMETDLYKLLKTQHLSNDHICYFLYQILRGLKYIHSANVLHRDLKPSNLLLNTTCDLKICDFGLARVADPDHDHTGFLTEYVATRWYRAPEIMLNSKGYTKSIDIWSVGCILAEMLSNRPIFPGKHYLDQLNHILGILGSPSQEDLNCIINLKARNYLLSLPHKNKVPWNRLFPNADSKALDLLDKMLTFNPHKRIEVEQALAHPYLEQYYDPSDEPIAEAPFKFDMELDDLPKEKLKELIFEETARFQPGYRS
Chain of Mitogen-activated protein kinase 14 (Homo sapiens) (Q16539 whole entry): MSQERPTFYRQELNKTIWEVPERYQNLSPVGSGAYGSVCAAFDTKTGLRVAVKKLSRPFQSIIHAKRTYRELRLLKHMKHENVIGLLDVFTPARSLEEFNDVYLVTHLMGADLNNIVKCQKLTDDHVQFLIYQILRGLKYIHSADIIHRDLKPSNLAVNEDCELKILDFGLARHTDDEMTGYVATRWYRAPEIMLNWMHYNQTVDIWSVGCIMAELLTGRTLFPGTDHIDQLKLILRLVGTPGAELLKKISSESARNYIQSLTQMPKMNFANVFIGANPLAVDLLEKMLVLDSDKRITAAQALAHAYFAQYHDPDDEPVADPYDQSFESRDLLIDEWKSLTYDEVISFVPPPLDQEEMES
Chain of Insulin receptor (Homo sapiens) (P06213 28-758 limits assumed): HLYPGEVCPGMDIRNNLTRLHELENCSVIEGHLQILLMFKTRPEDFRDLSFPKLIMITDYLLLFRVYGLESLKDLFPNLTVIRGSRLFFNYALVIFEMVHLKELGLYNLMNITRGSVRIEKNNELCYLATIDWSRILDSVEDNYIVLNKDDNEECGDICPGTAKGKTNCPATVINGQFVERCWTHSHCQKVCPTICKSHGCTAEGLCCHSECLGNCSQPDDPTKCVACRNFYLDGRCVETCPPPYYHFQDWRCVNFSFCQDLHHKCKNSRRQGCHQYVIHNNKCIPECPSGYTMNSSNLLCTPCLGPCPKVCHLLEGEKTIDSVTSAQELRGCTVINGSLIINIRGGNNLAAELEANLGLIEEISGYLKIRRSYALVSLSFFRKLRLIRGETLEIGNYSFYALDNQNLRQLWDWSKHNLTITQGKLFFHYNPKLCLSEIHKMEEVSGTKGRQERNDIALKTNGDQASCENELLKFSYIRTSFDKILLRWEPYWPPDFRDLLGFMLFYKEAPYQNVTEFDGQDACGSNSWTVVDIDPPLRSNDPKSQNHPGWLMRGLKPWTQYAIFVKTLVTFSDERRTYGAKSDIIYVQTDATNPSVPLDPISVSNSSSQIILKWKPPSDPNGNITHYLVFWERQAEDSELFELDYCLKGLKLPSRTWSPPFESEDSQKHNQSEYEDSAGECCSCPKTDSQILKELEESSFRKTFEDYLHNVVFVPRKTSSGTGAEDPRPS
Chain of Insulin receptor (Homo sapiens) (P06213 763-1382 limits assumed): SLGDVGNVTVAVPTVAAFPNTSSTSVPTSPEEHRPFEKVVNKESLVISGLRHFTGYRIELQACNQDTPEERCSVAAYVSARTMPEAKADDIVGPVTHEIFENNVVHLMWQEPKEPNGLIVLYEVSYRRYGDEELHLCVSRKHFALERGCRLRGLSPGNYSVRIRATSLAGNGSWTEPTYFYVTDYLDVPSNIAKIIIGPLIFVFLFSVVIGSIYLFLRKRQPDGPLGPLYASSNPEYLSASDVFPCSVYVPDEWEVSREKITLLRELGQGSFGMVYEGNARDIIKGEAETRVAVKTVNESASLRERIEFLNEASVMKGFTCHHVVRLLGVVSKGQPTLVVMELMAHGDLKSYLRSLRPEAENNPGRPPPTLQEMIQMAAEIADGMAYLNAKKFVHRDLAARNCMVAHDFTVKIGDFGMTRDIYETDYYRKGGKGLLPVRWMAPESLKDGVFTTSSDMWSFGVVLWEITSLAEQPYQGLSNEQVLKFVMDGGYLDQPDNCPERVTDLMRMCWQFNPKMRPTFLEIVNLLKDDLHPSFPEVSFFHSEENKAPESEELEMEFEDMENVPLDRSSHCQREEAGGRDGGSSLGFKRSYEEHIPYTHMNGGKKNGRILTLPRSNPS
Chain of Epidermal growth factor receptor (P00533 whole entry): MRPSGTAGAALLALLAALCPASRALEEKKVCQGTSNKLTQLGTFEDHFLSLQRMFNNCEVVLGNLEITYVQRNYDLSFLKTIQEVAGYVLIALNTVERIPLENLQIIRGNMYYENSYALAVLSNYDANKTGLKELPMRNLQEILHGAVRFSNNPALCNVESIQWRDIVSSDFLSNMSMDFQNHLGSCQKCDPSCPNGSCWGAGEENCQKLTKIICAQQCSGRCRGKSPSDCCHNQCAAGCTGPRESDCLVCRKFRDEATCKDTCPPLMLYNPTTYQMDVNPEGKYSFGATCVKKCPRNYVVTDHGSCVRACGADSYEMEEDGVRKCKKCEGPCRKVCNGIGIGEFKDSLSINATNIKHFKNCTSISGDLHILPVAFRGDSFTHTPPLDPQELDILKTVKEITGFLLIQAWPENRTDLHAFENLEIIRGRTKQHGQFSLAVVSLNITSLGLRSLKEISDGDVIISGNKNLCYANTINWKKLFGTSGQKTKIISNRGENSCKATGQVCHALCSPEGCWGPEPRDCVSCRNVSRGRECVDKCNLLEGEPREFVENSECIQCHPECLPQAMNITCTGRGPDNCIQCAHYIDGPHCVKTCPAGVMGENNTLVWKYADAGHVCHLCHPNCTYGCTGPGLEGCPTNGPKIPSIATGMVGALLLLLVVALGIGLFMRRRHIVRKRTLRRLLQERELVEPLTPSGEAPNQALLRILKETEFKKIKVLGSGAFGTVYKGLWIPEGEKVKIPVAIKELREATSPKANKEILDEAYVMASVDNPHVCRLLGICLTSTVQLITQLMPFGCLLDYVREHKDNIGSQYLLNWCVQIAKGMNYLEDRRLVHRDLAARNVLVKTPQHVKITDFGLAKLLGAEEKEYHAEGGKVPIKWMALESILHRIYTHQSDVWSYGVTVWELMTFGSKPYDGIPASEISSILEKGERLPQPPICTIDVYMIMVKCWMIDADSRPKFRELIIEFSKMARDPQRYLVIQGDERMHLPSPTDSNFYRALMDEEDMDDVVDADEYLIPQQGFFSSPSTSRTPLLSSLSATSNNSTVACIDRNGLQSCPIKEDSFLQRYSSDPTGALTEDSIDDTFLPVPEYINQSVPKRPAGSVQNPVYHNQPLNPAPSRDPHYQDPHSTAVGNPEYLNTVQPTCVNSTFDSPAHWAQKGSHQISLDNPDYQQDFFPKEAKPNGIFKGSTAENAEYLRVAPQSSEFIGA

A word on the inhibition: it is the relative decrease from the control value, in per cent. The low end stands for little suppression, the high end for strong suppression. What is called IC50 is the concentration that inhibits the measured activity by half. With `CC(=O)c1nn(-c2ccccc2)cc1C(=O)c1c(C)[nH]c(-c2ccccc2)c1-c1ccccc1`, the inhibition came out at 33% in assay [1]; 100% in [2]; 3% in assay [3]; 21% in assay [4]; 12% in [5]; 3% in [6]. Also, the inhibition came out at 2% in assay [7]; 2% in assay [8]; 2% in assay [9]; 3% in [10]; 22% in [11]; 32% in [12]. The same compound registered an inhibition in assay [13] of 21%. Further, the values for the IC50 in [14] and in assay [15] were 4670 nM and 120 nM, respectively.
`Cc1[nH]c(-c2ccccc2)c(-c2ccccc2)c1C(=O)c1cn(-c2ccccc2)nc1-c1ccccc1`: the inhibition came out at 67% in assay [1]; 78% in assay [2]; 7% in [3]; 35% in assay [4]; 3% in assay [5]; 12% in assay [6]. The inhibition came to 3% in [7]; 21% in [8]; 4% in [9]; 24% in assay [10]; 44% in [11]; 45% in assay [12]. The compound further yielded an inhibition in [13] of 12%. The results for the concentration for half-maximal inhibition (IC50) in assay [14] and in assay [15] were 2560 nM and 910 nM, respectively.
As for `Cc1[nH]c(-c2ccccc2)c(-c2ccccc2)c1-c1ccc(NC(=O)c2ccccc2)c(=O)o1`, the inhibition turned out to be 65% in assay [1]; 80% in [2]; 5% in assay [3]; 4% in [4]; 2% in assay [5]; 32% in [6]. The inhibition in assay [7] turned out to be 2%; in assay [8] it was 21%; in assay [9] it was 3%; in assay [10], 33%; in assay [11], 34%; in assay [12], 22%. The compound also came in with an inhibition in assay [13] of 12%. The IC50 in assay [14] turned out to be 2890 nM; in assay [15] it was 780 nM.
Consider `CCOC(=O)c1nn(-c2ccccc2)cc1C(=O)c1c(C)[nH]c(-c2ccccc2)c1-c1ccccc1`, for which the inhibition in [1] was found to be 12%; in assay [2] it was 85%; in assay [3], 7%; in assay [4], 32%; in assay [5], 13%; in assay [6], 2%. Besides, the inhibition in [7] worked out at 2%; in assay [8], 21%; in [9] it was 2%; in assay [10] it was 5%; in assay [11], 23%; in assay [12], 6%. Besides, the inhibition in assay [13] was found to be 23%. The 50% inhibitory concentration (IC50) in assay [14] amounted to 3220 nM; in assay [15] it was 670 nM.
For `Cc1[nH]c(-c2ccccc2)c(-c2ccccc2)c1-c1nnc(C)c2nn(-c3ccccc3)cc12`, the inhibition in assay [1] came to 13%; in assay [2], 83%; in assay [3], 6%; in [4], 32%; in [5], 2%; in assay [6], 4%. In addition, the inhibition was determined as 1% in assay [7]; 12% in [8]; 1% in assay [9]; 3% in assay [10]; 43% in assay [11]; 5% in assay [12]. The inhibition in [13] came out at 43%. Besides, the results for the 50% inhibitory concentration (IC50) in [14] and in assay [15] were 3890 nM and 700 nM, respectively.
Regarding `Cc1[nH]c(-c2ccccc2)c(-c2ccccc2)c1C(=O)c1coc2ccc(O)cc12`, the inhibition was found to be 32% in [1]; 90% in assay [2]; 4% in assay [3]; 3% in assay [4]; 3% in assay [5]; 24% in assay [6]. For the same compound, the inhibition in assay [7] stood at 3%; in assay [8], 23%; in [9], 2%; in [10] it was 21%; in [11], 32%; in assay [12], 32%. For the same compound, the inhibition in assay [13] was determined as 32%. Moreover, the half-inhibitory concentration (IC50) in assay [14] was 3670 nM; in [15] it was 450 nM.
